Assay results: patent publication US6458950B1, “Compounds and pharmaceutical compositions containing the same” (Shionogi & Co., Ltd., priority 1997, dated 2002)
≈ marks a conversion by molar mass, not a printed value.

How the values were obtained:
[1] = tested on: S.aureus Smith; test: Treating effect on infections in mouse; type: in vivo; details: Staphylococcus aureus, S.aureus Smith infection
[2] = tested on: K. pneumoniae SR1; test: MIC by agar dilution method; type: cell-based; details: Klebsiella pneumoniae, K.pneumoniae R1, inoculation amount 10^6 CFU/ml
Protocol: (§1) The minimal inhibitory concentration (MIC) was determined by an agar dilution method. That is, 1.0 ml each of an aqueous solution of a test compound diluted in series was poured into a petri dish. Trypticase soy agar (9 ml) was poured into the solution, and mixed. A suspension (about 10^6 CFU/ml) of test bacteria was smeared on the mixed agar plate.
(§2) Gram-positive bacteria; S. pyogenes C-203, S. agalactiae ATCC13813, S. pneumoniae Type I, S. pneumoniae SR16675(PC-R), S. mitis ATCC9811 Gram-negative bacteria: K. pneumoniae SR1, P. mirabilis PR-4 and P. vulgaris CN-329

[3] = tested on: S. agalactiae ATCC13813; test: MIC by agar dilution method; type: cell-based; details: Streptococcus agalactiae, inoculation amount 10^6 CFU/ml
Protocol: as §1, §2

[4] = tested on: S. pneumoniae SR16675(PC-R); test: MIC by agar dilution method; type: cell-based; details: Streptococcus pneumoniae, inoculation amount 10^6 CFU/ml
Protocol: as §1, §2

[5] = tested on: S. pyogenes C-203; test: MIC by agar dilution method; type: cell-based; details: Streptococcus pyogenes, C203, inoculation amount 10^6 CFU/ml
Protocol: as §1, §2

[6] = tested on: S. mitis ATCC9811; test: MIC by agar dilution method; type: cell-based; details: Streptococcus mitis, inoculation amount 10^6 CFU/ml
Protocol: as §1, §2

[7] = tested on: S. pneumoniae Type I; test: MIC by agar dilution method; type: cell-based; details: Streptococcus pneumoniae, inoculation amount 10^6 CFU/ml
Protocol: as §1, §2

[8] = tested on: P. vulgaris CN-329; test: MIC by agar dilution method; type: cell-based; details: Proteus vulgaris, CN329, inoculation amount 10^6 CFU/ml
Protocol: as §1, §2

[9] = tested on: P. mirabilis PR-4; test: MIC by agar dilution method; type: cell-based; details: Proteus mirabilis, PR4, inoculation amount 10^6 CFU/ml
Protocol: as §1, §2

[10] = tested on: S.pneumoniae Type I; test: Treating effect on infections in mouse; type: in vivo; details: Streptococcus pneumoniae, S.pneumoniae Type I infection
[11] = tested on: P.vulgaris GN-329; test: Treating effect on infections in mouse; type: in vivo; details: Proteus vulgaris, GN329, P.vulgaris GN-329 infection
[12] = tested on: P.aeruginosa SR24; test: Treating effect on infections in mouse; type: in vivo; details: Pseudomonas aeruginosa, P.aeruginosa SR24 infection
[13] = in vivo; details: mouse
[14] = in vivo; details: monkey
[15] = tested on: P.aeruginosa E-2; test: Treating effect on infections in mouse; type: in vivo; details: Pseudomonas aeruginosa, E2, P.aeruginosa E-2 infection

MIC [2] [µg/mL]	MIC [3] [µg/mL]	MIC [4] [µg/mL]	MIC [5] [µg/mL]	MIC [6] [µg/mL]	MIC [7] [µg/mL]	MIC [8] [µg/mL]	MIC [9] [µg/mL]	half-life [13] [min]	half-life [14] [min]	SMILES	ED50 [1] [mg/kg]	ED50 [10] [mg/kg]	ED50 [11] [mg/kg]	ED50 [12] [mg/kg]	ED50 [15] [mg/kg]
0.05 (≈ 0.097 µM)	0.1 (≈ 0.194 µM)	0.78 (≈ 1.51 µM)	0.013 (≈ 0.0252 µM)	0.1 (≈ 0.194 µM)	0.05 (≈ 0.097 µM)	0.1 (≈ 0.194 µM)	0.1 (≈ 0.194 µM)	23.4	76.8	CO/N=C(\C(=O)NC1C(=O)N2C(C(=O)[O-])=C(Cn3cc[n+]4ncccc34)CSC12)c1nsc(N)n1 (centres unmarked) [Control compound (1)]	0.76	0.69	0.81	1.52	4.73
0.006 (≈ 0.00915 µM)	0.025 (≈ 0.0381 µM)	0.2 (≈ 0.305 µM)	0.006 (≈ 0.00915 µM)	0.05 (≈ 0.0763 µM)	0.013 (≈ 0.0198 µM)	0.013 (≈ 0.0198 µM)	0.013 (≈ 0.0198 µM)			N#CNC(=O)NCc1cc(-c2cc[n+](CC3=C(C(=O)[O-])N4C(=O)C(NC(=O)/C(=N\OCF)c5nsc(N)n5)C4SC3)cc2)c[nH]1 (centres unmarked) [I-1′]					
